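Following 48 hours of exposure in 96-well plates, responses at five concentrations were used to interpolate endpoints linearly. GI50: concentration for 50% inhibition of growth. The concentration for full growth arrest is given as TGI.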
How the values were obtained:
Assay in all cases: NCI anticancer screen, dose series, 48 h
[1] = test system: U251 CNS
[2] = test system: COLO 205 colon
[3] = test system: SK-MEL-5 melanoma
[4] = test system: KM12 colon
[5] = test system: TK-10 renal
[6] = test system: LOX IMVI melanoma
[7] = test system: HS 578T breast
[8] = test system: NCI/ADR-RES ovarian
[9] = test system: MDA-MB-435
[10] = test system: RXF 393 renal

SMILES | TGI [1] [µM] | TGI [2] [µM] | TGI [3] [µM] | TGI [4] [µM] | TGI [5] [µM] | TGI [6] [µM] | GI50 [7] [µM] | TGI [7] [µM] | GI50 [1] [µM] | GI50 [2] [µM] | GI50 [3] [µM] | GI50 [8] [µM] | TGI [8] [µM] | GI50 [4] [µM] | GI50 [9] [µM] | TGI [9] [µM] | GI50 [5] [µM] | GI50 [6] [µM] | TGI [10] [µM] | GI50 [10] [µM]
O=c1nc2cc(-c3ccccc3)[nH]c2nn1-c1c(Cl)cc(Cl)cc1Cl | 34.2 | 32.9 | 56.4 | 39.2 | 69.4 | 50 | – | – | – | – | – | – | – | – | – | – | – | – | – | –
O=C(/C=C/c1cccc(Cl)c1)c1ccc(Cl)cc1Cl | 21.1 | 40.6 | 17.5 | 21.6 | 18.8 | 4.69 | 13.2 | 40.1 | 8.37 | 12.2 | 8.78 | 11.3 | 21.6 | 9.76 | 8.31 | 16.8 | 8.8 | 1.88 | – | –
C=C1C(C)C2C(Cc3ccccc3)NC(=O)C23C(OC(C)=O)/C=C/C(C)(O)CC(C)C/C=C/C3C1O (stereo not given) | 18.4 | > 100 | 35.6 | > 100 | > 54.5 | 19.2 | – | 0.62 | – | – | – | – | > 100 | – | – | – | – | – | 2.97 | –
O=[N+]([O-])c1ccc(Cl)c(C2SCc3nc4ccccc4n32)c1 (stereo not given) | > 100 | > 100 | 30.4 | > 100 | > 100 | – | – | – | – | – | – | – | – | – | – | – | – | – | > 100 | –
COc1ccc(C(O)c2cc3c(N)c(C(=O)Nc4cccc(Br)c4)sc3nc2C)cc1 (stereo not given) | > 41.1 | 0.773 | 0.47 | – | > 95.1 | > 32.4 | 0.101 | > 21.7 | 0.119 | 0.127 | 0.123 | 0.104 | 4.87 | 0.117 | 0.0202 | 0.05 | 9.26 | 0.154 | – | –
COc1ccc(O)c2c1C(=O)CCCC2=O | > 100 | > 100 | > 100 | > 100 | > 100 | > 100 | – | – | – | – | – | – | – | – | – | – | – | – | – | –
Cc1nc(C(N)=S)sc1C(=O)/C=C/c1cccc(O)c1 | > 100 | > 100 | > 100 | > 100 | > 100 | > 100 | – | – | – | – | – | – | – | – | – | – | – | – | > 100 | –
COc1ccc(NC(=O)C(=O)C2NC(=S)NC2=O)c(OC)c1 (stereo not given) | > 100 | > 100 | – | > 100 | > 100 | > 100 | – | – | – | – | – | – | – | – | – | – | – | – | > 100 | –
COc1cc2c(cc1C)n(O)c(C)c(C(=O)C/C(=N/NC(=O)C[N+](C)(C)C)C(=O)Nc1cccc(Cl)c1C)[n+]2=O | > 100 | > 100 | > 100 | > 100 | > 100 | > 100 | – | – | – | – | – | – | – | – | – | – | – | – | > 100 | –
CCC1(CN(C)C)CC/C(=C\c2ccc3c(c2)OCO3)C1=O (stereo not given) | > 100 | > 100 | > 100 | > 100 | > 100 | > 100 | – | – | – | – | – | – | – | – | – | – | – | – | > 100 | –
COC(=O)C1=C(C(=O)OC)C2(C(=O)OC)OC1(OC)C(C1(C(=O)OC)C(C(=O)OC)=C1C(=O)OC)=C2C(=O)OC (stereo not given) | > 100 | > 100 | > 100 | > 100 | > 100 | > 100 | – | – | – | – | – | – | – | – | – | – | – | – | > 100 | –
COc1ccc(NC(=O)c2cc(OC)c(OC)c(OC)c2)cc1O | > 100 | > 100 | 48.6 | > 100 | > 100 | > 100 | – | – | 3.71 | 4.45 | 1.43 | 1.13 | > 100 | 0.792 | 0.241 | 0.872 | > 100 | 8.33 | 83.9 | 3.75
COc1cc(C2C(C(=O)Nc3ccccc3)=C(C)NC(C)=C2C(=O)Nc2ccccc2)ccc1O | > 100 | 60.4 | – | > 100 | > 100 | – | – | – | – | – | – | – | – | – | – | – | – | – | > 100 | –
Cc1cc(C)nc(NS(=O)(=O)c2ccc(NC(=O)c3cccc4cc5ccccc5nc34)cc2)n1 | > 100 | > 100 | > 100 | 84.9 | > 100 | 56.1 | – | – | – | – | – | – | – | – | – | – | – | – | > 100 | –
Cc1ccc(Nc2ccc(Nc3ccc(C)cc3)c3c2C(=O)c2c(O)ccc(O)c2C3=O)cc1 | > 100 | > 100 | > 100 | > 100 | > 100 | > 100 | – | – | – | – | – | – | – | – | – | – | – | – | > 100 | –
Fc1ccccc1C1CC(C(c2ccccc2)c2ccccc2)=Nc2ccccc2S1 (stereo not given) | 25.5 | 27.9 | 24.9 | 23.1 | 25.2 | 19.7 | – | – | – | – | – | – | – | – | – | – | – | – | 17.2 | –

— PubChem BioAssay (NCI)
